Here are results for three compounds from ChEMBL document CHEMBL1126161, “3,4-Dihydroquinolin-2(1H)-ones as combined inhibitors of thromboxane A2 synthase and cAMP phosphodiesterase” (J Med Chem, 1992).

For assay [1], the system named is Rattus norvegicus. Briefly: Antihypertensive activity in conscious spontaneously hypertensive rat (SHR), percent change in heart rate (beats/min) after 2 hr at 10 mg/kg peroral dose. It is filed as functional. The note with it: route oral.
For assay [2], the system named is Rattus norvegicus. Briefly: Antihypertensive activity in conscious spontaneously hypertensive rat (SHR), percent change in heart rate (beats/min) after 4 hr at 10 mg/kg peroral dose. It is filed as functional. Conditions: route oral.
Assay [3] relates to Rattus norvegicus. Nature of the assay: Antihypertensive activity in conscious spontaneously hypertensive rat (SHR), percent change in Systolic blood pressure (SBP) after 2 hr at 10 mg/kg peroral dose. The class given is functional. The note with it: route oral.
Assay [4] deals with Rattus norvegicus. Nature of the assay: Antihypertensive activity in conscious spontaneously hypertensive rat (SHR), percent change in Systolic blood pressure (SBP) after 1 hr at 10 mg/kg peroral dose. The class given is functional. The note with it: route oral.
The subject of assay [5] is Rattus norvegicus. Nature of the assay: Antihypertensive activity in conscious spontaneously hypertensive rat (SHR), percent change in Systolic blood pressure (SBP) after 4 hr at 10 mg/kg peroral dose. The class given is functional. The note with it: route oral.
Assay [6] deals with Rattus norvegicus. Briefly: Antihypertensive activity in conscious spontaneously hypertensive rat (SHR), percent change in heart rate (beats/min) after 1 hr at 10 mg/kg peroral dose. Conditions: route oral. It is filed as functional.
The test system of assay [7] is Rattus norvegicus. Nature of the assay: Ex vivo inhibition of blood platelet aggregation in rats at 100 mg/kg peroral dose after 5 hr. The class given is functional. Conditions: route oral.
Assay [8] concerns Rattus norvegicus. Nature of the assay: Ex vivo inhibition of blood platelet aggregation in rats at 100 mg/kg peroral dose after 3 hr. The class given is functional. The note with it: route oral.
Assay [9] is filed under the species Mus musculus. Nature of the assay: Time course of protection against mortality in a pulmonary thromboembolism model in mice after -1h. The class given is functional.
Assay [10] has as its system Mus musculus. Nature of the assay: Protection against mortality in pulmonary thromboembolism model in mice at 1 mg/kg. It is filed as functional.
Assay [11] has as its system Mus musculus. Briefly: Protection against mortality in pulmonary thromboembolism model in mice at 30 mg/kg. It is filed as functional.
The species entered for assay [12] is Homo sapiens. Briefly: Inhibition of [14C]arachidonic acid induced platelet aggregation at 50 uM (Control 6-keto-PGF1-alpha = 1.45+/-0.6). The class given is functional.
Assay [13] is filed under the species Mus musculus. Briefly: Time course of protection against mortality in a pulmonary thromboembolism model in mice after -3h. The class given is functional.
Assay [14] is filed under the species Homo sapiens. Nature of the assay: Inhibition of [14C]arachidonic acid induced TXB2 formation at 5 uM (Control TXB2 = 14.9+/-2.5).
For assay [15], the species on record is Mus musculus. Nature of the assay: Time course of protection against mortality in a pulmonary thromboembolism model in mice after -5h. The class given is functional.
The species named for assay [16] is Mus musculus. Nature of the assay: Time course of protection against mortality in a pulmonary thromboembolism model in mice after -7h. The class given is functional.
Assay [17] deals with Rattus norvegicus. Nature of the assay: Ex vivo inhibition of blood platelet aggregation in rats at 100 mg/kg peroral dose after 8 hr. It is filed as functional. The note with it: route oral.
The test system of assay [18] is Mus musculus. Briefly: Protection against mortality in pulmonary thromboembolism model in mice at 12 mg/kg. It is filed as functional.
For assay [19], the species on record is Homo sapiens. Briefly: Inhibition of [14C]arachidonic acid induced platelet aggregation at 50 uM (Control TXB2 = 14.9+/-2.5). The class given is functional.
For assay [20], the system named is Rattus norvegicus. Nature of the assay: Effect of TXA2 synthase inhibitor (compound) on serum TXB2 level in rats at 50 mg/kg po, after 2 hr. The class given is functional.
In assay [21] the test system is Mus musculus. Nature of the assay: Protection against mortality in pulmonary thromboembolism model in mice at 9 mg/kg. The class given is functional.
The test system of assay [22] is Rattus norvegicus. Nature of the assay: Effect of TXA2 synthase inhibitor (compound) on serum TXB2 level in rats at 50 mg/kg po, after 2 hr. It is filed as functional.
Assay [23] is filed under the species Homo sapiens. Briefly: Inhibition of [14C]arachidonic acid induced platelet aggregation at 10 uM (Control TXB2 = 14.9+/-2.5). It is filed as functional.
In the next assay the target is T1, Thromboxane-A synthase (Homo sapiens, UniProt P24557).
T1 sequence (P24557 whole entry): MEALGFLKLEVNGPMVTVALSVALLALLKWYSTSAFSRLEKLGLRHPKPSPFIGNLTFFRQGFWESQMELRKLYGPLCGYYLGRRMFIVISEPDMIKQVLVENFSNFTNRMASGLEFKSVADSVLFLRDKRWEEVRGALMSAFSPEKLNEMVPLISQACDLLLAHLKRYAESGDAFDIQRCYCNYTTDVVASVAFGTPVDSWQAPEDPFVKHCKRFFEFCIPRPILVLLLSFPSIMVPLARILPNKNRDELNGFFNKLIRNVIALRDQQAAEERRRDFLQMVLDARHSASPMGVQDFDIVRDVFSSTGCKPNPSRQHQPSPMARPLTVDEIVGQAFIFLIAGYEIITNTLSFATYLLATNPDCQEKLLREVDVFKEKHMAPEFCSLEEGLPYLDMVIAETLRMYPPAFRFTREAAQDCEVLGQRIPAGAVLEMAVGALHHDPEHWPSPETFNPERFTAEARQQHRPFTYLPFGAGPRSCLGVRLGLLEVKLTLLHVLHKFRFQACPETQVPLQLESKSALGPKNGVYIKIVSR
Nature of the assay: Compound was evaluated for the inhibition of human blood platelet, thromboxane A2 synthase.

The test system of assay [24] is Rattus norvegicus. Nature of the assay: Antihypertensive activity in conscious spontaneously hypertensive rat (SHR), percent change in heart rate (beats/min) after 1 hr. The class given is functional.
Assay [25] relates to Rattus norvegicus. Briefly: Antihypertensive activity in conscious spontaneously hypertensive rat (SHR), percent change in heart rate (beats/min) after 4 hr. It is filed as functional.
Assay [26] is filed under the species Homo sapiens. Nature of the assay: Inhibition of [14C]arachidonic acid induced 6-keto-PGF1-alpha formation at 10 uM (Control 6-keto-PGF1-alpha = 1.45+/-0.6).
Assay [27] has as its system Rattus norvegicus. Briefly: Ex vivo inhibition of blood platelet aggregation in rats at 50 mg/kg peroral dose after 5 hr. It is filed as functional. The note with it: route oral.
The species entered for assay [28] is Homo sapiens. Nature of the assay: Ratio of IC50(PDE)/IC50(TXA2). It is filed as functional.
Assay [29] deals with Rattus norvegicus. Nature of the assay: Antihypertensive activity in conscious spontaneously hypertensive rat (SHR), percent change in Systolic blood pressure (SBP) after 4 hr. It is filed as functional.
For assay [30], the species on record is Homo sapiens. Nature of the assay: Ratio of IC50(w/oPAM)/IC50(w/PAM). The class given is functional.
The species entered for assay [31] is Homo sapiens. Nature of the assay: Inhibition of [14C]arachidonic acid induced platelet aggregation at 1 uM (Control TXB2 = 14.9+/-2.5). The class given is functional.
Assay [32] concerns Rattus norvegicus. Nature of the assay: Antihypertensive activity in conscious spontaneously hypertensive rat (SHR), percent change in Systolic blood pressure (SBP) after 1 hr. It is filed as functional.
The species named for assay [33] is Homo sapiens. Briefly: In vitro inhibition of ADP-induced aggregation of human PRP in the presence of pig aortal microsomes (PAM). It is filed as functional.
In assay [34] the test system is Mus musculus. Briefly: Protection against mortality in pulmonary thromboembolism model in mice at 3 mg/kg. It is filed as functional.
Assay [35] is filed under the species Homo sapiens. Nature of the assay: Inhibition of ADP-induced aggregation of human PRP in the absence of pig aortal microsomes (PAM). It is filed as functional.
The target of another assay is Phosphodiesterase 3 (Homo sapiens, UniProt Q14432+Q13370). Nature of the assay: Inhibition of human blood platelet c-AMP phosphodiesterase.
Assay [36] deals with Rattus norvegicus. Nature of the assay: Ex vivo inhibition of blood platelet aggregation in rats at 50 mg/kg peroral dose after 8 hr. It is filed as functional. The note with it: route oral.
Assay [37] deals with Rattus norvegicus. Nature of the assay: Ex vivo inhibition of blood platelet aggregation in rats at 50 mg/kg peroral dose after 3 hr. Conditions: route oral. The class given is functional.
For assay [38], the system named is Rattus norvegicus. Briefly: Antihypertensive activity in conscious spontaneously hypertensive rat (SHR), percent change in Systolic blood pressure (SBP) after 2 hr. The class given is functional.
Assay [39] concerns Rattus norvegicus. Briefly: Antihypertensive activity in conscious spontaneously hypertensive rat (SHR), percent change in heart rate (beats/min) after 2 hr. The class given is functional.
The species named for assay [40] is Homo sapiens. Nature of the assay: Inhibition of [14C]arachidonic acid induced platelet TXB2 formation at 0.1 uM (Control TXB2 = 14.9+/-2.5).
Assay [41] concerns Mus musculus. Briefly: Protection against mortality in pulmonary thromboembolism model in mice at 10 mg/kg. The class given is functional.
Assay [42] is filed under the species Homo sapiens. Briefly: Inhibition of [14C]arachidonic acid conversion to 6-keto-PGF1-alpha in platelets at 1 uM (Control 6-keto-PGF1-alpha = 1.45+/-0.6).

For the compound `Cc1[nH]c(=O)c(C#N)cc1-c1ccncc1` [MILRINONE], the “Change in heart rate” value in the assay with Rattus norvegicus [1] was 36%; in the assay on Rattus norvegicus [2] it was 45%; in the assay with Rattus norvegicus [6], 11%. The “Change systolic BP” value in the assay on Rattus norvegicus [3] is -54%; with Rattus norvegicus [4], -65%; in the assay with Rattus norvegicus [5], -47%.
The inhibition in vivo is the share of the control response that was lost under treatment. In general, inhibition refers to the relative decrease from the control value, in per cent. Higher therefore signals a strong effect. For the compound `Cl.O=C(O)c1ccc(OCCn2ccnc2)cc1` [DAZOXIBEN HYDROCHLORIDE], the inhibition in vivo at 100 mg/kg in the assay on Rattus norvegicus [7] is 24.6%; with Rattus norvegicus [8], 23.4%; with Rattus norvegicus [17], 50.9%. For the same compound, the Survival in the assay filed under Mus musculus [9] is 40%; in the assay listed under Mus musculus [13], 20%; in the assay filed under Mus musculus [15], 20%; in the assay listed under Mus musculus [16] it was 10%. This compound showed a survival at 1 mg/kg in the assay on Mus musculus [10] of 20%. In the assay with Mus musculus [11], this compound returned a survival at 30 mg/kg of 50%. In the assay listed under Homo sapiens [12], the 6-keto-PGF1α level at 50 µM came to 25.2%. Besides, in the assay filed under Homo sapiens [14], the TXB2 level at 5 µM is 2.4%. In the assay on Mus musculus [18], this compound yielded a survival at 12 mg/kg of 50%. Moreover, the inhibition at 50 µM in the assay listed under Homo sapiens [19] is 1.5%. For the same compound, 50 mg/kg produced 74% inhibition in vivo in the assay on Rattus norvegicus [20]. The survival at 9 mg/kg in the assay on Mus musculus [21] turned out to be 40%.
As usually defined, the IC50 is the concentration that gives 50% inhibition. Take `O=C1CCc2cc(-c3cccnc3)ccc2N1`: the inhibition in vivo at 50 mg/kg worked out at 94% in the assay on Rattus norvegicus [22], 53.2% in the assay on Rattus norvegicus [27], 4.7% in the assay with Rattus norvegicus [36] and 94.7% in the assay with Rattus norvegicus [37]. Moreover, the survival at 1 mg/kg in the assay with Mus musculus [10] worked out at 20%. This compound also registered a TXB2 level at 10 µM in the assay listed under Homo sapiens [23] of 4.5%. The IC50 on Thromboxane-A synthase came to 540 nM; in the assay filed under Homo sapiens [33], 540 nM; in the assay listed under Homo sapiens [35], 27000 nM; on Phosphodiesterase 3, 4400 nM. The “Change in heart rate” value in the assay on Rattus norvegicus [24] stood at 13%; in the assay with Rattus norvegicus [25] it was 13%; with Rattus norvegicus [39], 18%. Further, the survival at 30 mg/kg in the assay with Mus musculus [11] is 50%. The compound also registered a 6-keto-PGF1α level at 10 µM in the assay filed under Homo sapiens [26] of 31.9%. The Ratio in the assay listed under Homo sapiens [28] stood at 8.1; in the assay listed under Homo sapiens [30], 50. The “Change systolic BP” value with Rattus norvegicus [29] is given as -22%; in the assay on Rattus norvegicus [32], -42%; in the assay on Rattus norvegicus [38], -28%. The TXB2 level at 1 µM in the assay filed under Homo sapiens [31] turned out to be 14.8%. This compound came in with a survival at 3 mg/kg in the assay on Mus musculus [34] of 40%. The compound also had a TXB2 level at 0.1 µM in the assay listed under Homo sapiens [40] of 21.1%. The compound further showed a survival at 10 mg/kg in the assay on Mus musculus [41] of 40%. Further, the 6-keto-PGF1α level at 1 µM in the assay filed under Homo sapiens [42] was 7.7%.
